Source: US20080176898A1, “Phenyl Acetamides” (Bayer HealthCare AG, priority 2004, published 2008)

Experiments:
[1] = molecular target: T1, human CysLT1 receptor (Homo sapiens, UniProt Q9Y271); assay: Cellular in vitro test to determine the CysLT1 activity (aequorin luminescence, CHO K1 cells); type: cell-based; conditions: recombinant CHO K1 cells with aequorin and human CysLT1 receptor; antagonism of LTD4 (3×10^−9 M) induced calcium release; 15 minutes preincubation
T1 construct: expressed in transfected cells; host or cells: CHO K1 cells constitutively expressing aequorin
T1 sequence (Q9Y271 1-337): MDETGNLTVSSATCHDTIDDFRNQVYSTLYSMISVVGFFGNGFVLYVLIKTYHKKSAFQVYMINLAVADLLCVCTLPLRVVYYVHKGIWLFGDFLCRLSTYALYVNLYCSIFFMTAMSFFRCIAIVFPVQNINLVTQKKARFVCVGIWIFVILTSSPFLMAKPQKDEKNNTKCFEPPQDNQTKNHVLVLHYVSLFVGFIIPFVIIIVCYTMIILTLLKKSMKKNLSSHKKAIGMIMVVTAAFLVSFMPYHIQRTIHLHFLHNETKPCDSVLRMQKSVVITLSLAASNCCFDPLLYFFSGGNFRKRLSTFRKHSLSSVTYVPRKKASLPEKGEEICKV
Excerpt: 2. Cellular In Vitro Test to Determine the CysLT1 Activity
A recombinant cell line is used to identify antagonists of the human cysteinyl-leukotriene 1 receptor (CysLT1R) and to quantify the activity of the substances described herein. The cell is originally derived from a hamster ovary epithelial cell (Chinese Hamster Ovary, CHO K1, ATCC: American Type Culture Collection, Manassas, Va. 20108, USA). The test cell line constitutively expresses the calcium-sensitive photoprotein aequorin which, after reconstitution with the cofactor coelenterazine, emits light when the cytoplasmic calcium concentration is increased (Rizzuto R, Simpson A W, Brini M, Pozzan T.; Nature 358 (1992) 325-327). The cell is additionally stably transfected with the human CysLT1 receptor (Lynch et al., Nature 399 (1999) 789-793). The resulting CysLT1R test cell responds to stimulation of the recombinant CysLT1 receptor (agonist: leukotriene D4 (LTD4)) with an intracellular release of calcium ions, which can be quantified through the resulting aequorin luminescence with a suitable luminometer (Milligan G, Marshall F, Rees S, Trends in Pharmacological Sciences 17 (1996) 235-237). Preincubation with antagonists of the CysLT1 receptor reduces the calcium release induced by the agonist LTD4 and thus the measured amount of light.
(§1) Test procedure: The cells are plated out two days before the test in culture medium (DMEM/F12 with Glutamax, Gibco Cat. #61965-026; 10% FCS, Gibco Cat. #10270-106; 1.4 mM sodium pyruvate, Gibco Cat. #11360-039; 1.8 mM sodium bicarbonate, Gibco Cat. #25080-060; 10 mM HEPES, Gibco Cat. #15290-026; now belongs to Invitrogen GmbH, 76131 Karlsruhe) in 384- (or 1536-)well microtiter plates and kept in a cell incubator (96% humidity, 5% v/v CO2, 37° C.). On the day of the test, the culture medium is replaced by Tyrode solution (in mM: 140 NaCl, 5 KCl, 1 MgCl2, 2 CaCl2, 20 glucose, 20 HEPES) which additionally contains the cofactor coelenterazine (50 μM), and the microtiter plate is then incubated for a further 3-4 hours. 15 minutes after the test substances have been transferred into the wells of the microtiter plate, the resulting light signal is measured after addition of the LID4 (3×10^−9 M) in the luminometer.

[2] = molecular target: T2, human CysLT2 receptor (Homo sapiens, UniProt Q9NS75); assay: Cellular in vitro test to determine the CysLT2 activity (aequorin luminescence, CHO K1 cells); type: cell-based; conditions: recombinant CHO K1 cells with aequorin and human CysLT2 receptor; antagonism of LTD4 (3×10^−8 M) induced calcium release; 15 minutes preincubation
T2 construct: expressed in transfected cells; host or cells: CHO K1 cells constitutively expressing aequorin
T2 sequence (Q9NS75 1-346): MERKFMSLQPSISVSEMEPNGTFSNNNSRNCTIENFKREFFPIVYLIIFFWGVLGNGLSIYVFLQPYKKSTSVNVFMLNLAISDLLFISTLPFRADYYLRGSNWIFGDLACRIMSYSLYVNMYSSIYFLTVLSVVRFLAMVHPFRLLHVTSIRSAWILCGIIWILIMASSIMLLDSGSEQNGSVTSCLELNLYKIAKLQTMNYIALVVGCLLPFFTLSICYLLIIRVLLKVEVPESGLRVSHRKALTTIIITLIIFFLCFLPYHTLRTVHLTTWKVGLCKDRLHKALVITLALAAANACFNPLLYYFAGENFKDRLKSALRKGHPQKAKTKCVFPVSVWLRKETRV
Excerpt: 1. Cellular In Vitro Test to Determine the CysLT2 Activity
A recombinant cell line is used to identify antagonists of the human cysteinyl-leukotriene 2 receptor (CysLT2R) and to quantify the activity of the substances described herein. The cell is originally derived from a hamster ovary epithelial cell (Chinese Hamster Ovary, CHO K1, ATCC: American Type Culture Collection, Manassas, Va. 20108, USA). The test cell line constitutively expresses the calcium-sensitive photoprotein aequorin which, after reconstitution with the cofactor coelenterazine, emits light when the cytoplasmic calcium concentration is increased (Rizzuto R, Simpson A W, Brini M, Pozzan T.; Nature 358 (1992) 325-327). The cell is additionally stably transfected with the human CysLT2 receptor (Heise et.al., JBC 275 (2000) 30531-30536). The resulting CysLT2R test cell responds to stimulation of the recombinant CysLT2 receptor (agonists: leukotriene D4 (LTD4) and leukotriene C4 (LTC4)) with an intracellular release of calcium ions, which can be quantified through the resulting aequorin luminescence with a suitable luminometer (Milligan G, Marshall F, Rees S, Trends in Pharmacological Sciences 17 (1996) 235-237). Preincubation with antagonists of the CysLT2 receptor reduces the calcium release induced by the agonists LTD4 and LTC4 and thus the measured amount of light.
as §1, with “384-(or” for “384- (or”, “[…]” for “3-4”, “LTD4 (3×10^−8” for “LID4 (3×10^−9”

Row | IC50 [1] [µM] | IC50 [2] [µM] | Compound
1 | > 10 | 0.045 | O=C(O)CCCNC(=O)Cc1cc(C(=O)O)ccc1OCCCc1ccc(OCCCC2CCCCC2)cc1 [Example 31, 3-{2-[(3-Carboxypropyl)amino]-2-oxoethyl}-4-{3-[4-(3-cyclohexylpropoxy)phenyl]propoxy}-benzoic acid]
2 | > 3 | 0.075 | O=C(O)CNC(=O)Cc1cc(C(=O)O)ccc1OCCCc1ccc(OCCCC2CCCCC2)cc1 [Example 45, 3-{2-[(Carboxymethyl)amino]-2-oxoethyl}-4-{3-[4-(3-cyclohexylpropoxy)phenyl]propoxy}-benzoic acid]

Continued, compound first:

Row | Compound | IC50 [1] [µM] | IC50 [2] [µM]
3 | O=C(O)c1ccc(OCCCc2ccc(OCCCC3CCCCC3)cc2)c(CC(=O)N2CCC(C(=O)O)CC2)c1 [Example 33, 1-[(5-Carboxy-2-{3-[4-(3-cyclohexylpropoxy)phenyl]propoxy}phenyl)acetyl]piperidine-4-carboxylic acid] | > 3 | 0.07
4 | O=C(O)c1ccc(OCCCc2ccc(OCCCCOC3CCCCC3)cc2)c(CC(=O)N2CCCC(C(=O)O)C2)c1 (stereo not shown) [Example 25, 1-{[5-Carboxy-2-(3-{4-[4-(cyclohexyloxy)butoxy]phenyl}propoxy)phenyl]acetyl}piperidine-3-carboxylic acid] | > 10 | 0.045
5 | O=C(O)CCCNC(=O)Cc1cc(C(=O)O)ccc1OCCCc1ccc(OCCCCOc2ccccc2)cc1 [Example 13, 3-{2-[(3-Carboxypropyl)amino]-2-oxoethyl}-4-{3-[4-(4-phenoxybutoxy)phenyl]propoxy}benzoic acid] | > 10 | 0.14
